IC50 data for 24 compounds are collected here from patent US12264134B2 (Merck Sharp & Dohme LLC, priority 2018, dated 2025).

IDO1, sequence (P14902 whole entry): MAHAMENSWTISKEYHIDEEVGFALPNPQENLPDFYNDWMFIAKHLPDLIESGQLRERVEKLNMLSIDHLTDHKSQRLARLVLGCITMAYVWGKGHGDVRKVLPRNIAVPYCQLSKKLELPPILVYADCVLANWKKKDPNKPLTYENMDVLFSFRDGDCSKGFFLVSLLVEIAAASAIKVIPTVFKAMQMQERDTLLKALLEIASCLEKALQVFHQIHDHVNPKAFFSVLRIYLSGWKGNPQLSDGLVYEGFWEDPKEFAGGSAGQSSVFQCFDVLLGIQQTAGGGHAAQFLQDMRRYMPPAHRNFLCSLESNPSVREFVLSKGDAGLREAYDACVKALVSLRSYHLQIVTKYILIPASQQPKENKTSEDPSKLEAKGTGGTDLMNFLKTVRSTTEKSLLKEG

The test addresses IDO1 (Homo sapiens, UniProt P14902). Briefly: IDO1 Cellular Assay in HeLa Cells Stimulated with IFNγ. Format: cell-based. To be noted: read-out: HeLa Cell Potency, IC50.
Turning to `O=C(Cn1nc(C(=O)N2CC[C@H](O)[C@H](F)C2)c2c1CCC2)N1CCN(C2CCCc3ccccc32)CC1` (stereo partly drawn) [Example 425, 2-(3-((3R,4S)-3-fluoro-4-hydroxypiperidine-1-carbonyl)-5,6-dihydrocyclopenta[c]pyrazol-1(4H)-yl)-1-(4-(1,2,3,4-tetrahydronaphthalen-1-yl)piperazin-1-yl)ethanone], the IC50 turned out to be 565 nM.

For `C[C@@H]1CN(C(=O)c2nn(CC(=O)N3CCN(C4CCCc5ccccc54)CC3)c3c2CCC3)C[C@H](C)O1` (stereo partly drawn) [Example 428, 2-(3-((2S,6R)-2,6-dimethylmorpholine-4-carbonyl)-5,6-dihydrocyclopenta[c]pyrazol-1(4H)-yl)-1-(4-(1,2,3,4-tetrahydronaphthalen-1-yl)piperazin-1-yl)ethanone], the IC50 was 85.7 nM.

With `O=C(Cn1nc(C(=O)N2CC[C@H](O)[C@@H](F)C2)c2c1CCC2)N1CCN(C2CCCc3ccccc32)CC1` (stereo partly drawn) [Example 433, 2-(3-((3S,4S)-3-fluoro-4-hydroxypiperidine-1-carbonyl)-5,6-dihydrocyclopenta[c]pyrazol-1(4H)-yl)-1-(4-(1,2,3,4-tetrahydronaphthalen-1-yl)piperazin-1-yl)ethanone], the IC50 came to 494 nM.

As to `O=C(Cn1nc(C(=O)N2CC[C@H](O)[C@@H](F)C2)c2c1CCC2)N1CCN(C2CCCc3ccccc32)CC1` (stereo partly drawn) [Example 434, 2-(3-((3S,4S)-3-fluoro-4-hydroxypiperidine-1-carbonyl)-5,6-dihydrocyclopenta[c]pyrazol-1(4H)-yl)-1-(4-(1,2,3,4-tetrahydronaphalen-1-yl)piperazin-1-yl)ethanone], the IC50 was determined as 8050 nM.

As to `O=C(Cn1nc(C(=O)N2CCC(O)CC2)c2c1CCC2)N1CCN(C2CCc3ccccc32)CC1` (stereo not drawn) [Example 435, 1-(4-(2,3-dihydro-1H-inden-1-yl)piperazin-1-yl)-2-(3-(4-hydroxypiperidine-1-carbonyl)-5,6-dihydrocyclopenta[c]pyrazol-1(4H)-yl)ethanone], the IC50 stood at 264 nM.

For `O=C(Cn1nc(C(=O)N2CCC(O)(CF)CC2)c2c1CCC2)N1CCN(c2cccc3c(F)cccc23)CC1` [Example 444, 2-(3-(4-(fluoromethyl)-4-hydroxypiperidine-1-carbonyl)-5,6-dihydrocyclopenta[c]pyrazol-1(4H)-yl)-1-(4-(5-fluoronaphthalen-1-yl)piperazin-1-yl)ethan-1-one], the concentration for half-maximal inhibition (IC50) is 298 nM.

With `Cc1c(N2CCN(C(=O)Cn3nc(C(=O)N4CCC(O)(CF)CC4)c4c3CCC4)CC2)ccc(F)c1Cl` [Example 445, 1-(4-(3-chloro-4-fluoro-2-methylphenyl)piperazin-1-yl)-2-(3-(4-(fluoromethyl)-4-hydroxypiperidine-1-carbonyl)-5,6-dihydrocyclopenta[c]pyrazol-1(4H)-yl)ethan-1-one], the IC50 was 5.31 nM.

Regarding `C[C@@H]1CN(C(=O)c2nn(CC(=O)N3CCN(c4cccc5c4CC5)CC3)c3c2CCC3)C[C@H](C)O1` [Example 446, 1-(4-(bicyclo[4.2.0]octa-1(6),2,4-trien-2-yl)piperazin-1-yl)-2-(3-((2R,6S)-2,6-dimethylmorpholine-4-carbonyl)-5,6-dihydrocyclopenta[c]pyrazol-1(4H)-yl)ethanone], the IC50 worked out at 206 nM.

For the compound `Cc1cccc(N2CCN(C(=O)Cn3nc(C(=O)N4C[C@@H](C)O[C@@H](C)C4)c4c3CCC4)CC23CC3)c1C` [Example 447, 2-(3-((2R,6S)-2,6-dimethylmorpholine-4-carbonyl)-5,6-dihydrocyclopenta[c]pyrazol-1(4H)-yl)-1-(4-(2,3-dimethylphenyl)-4,7-diazaspiro[2.5]octan-7-yl)ethanone], the IC50 amounted to 12.7 nM.

Regarding `Cc1cccc(N2CCN(C(=O)Cn3nc(C(=O)N4CCC(O)C(CO)C4)c4c3CCCC4)CC2)c1C` (stereo not drawn) [Example 452, 1-(4-(2,3-dimethylphenyl)piperazin-1-yl)-2-(3-(4-hydroxy-3-(hydroxymethyl)piperidine-1-carbonyl)-4,5,6,7-tetrahydro-1H-indazol-1-yl) ethanone], the IC50 was 1.05 nM.

For the compound `CC(=O)NC1CCN(C(=O)c2nn(CC(=O)N3CCN(c4cccc(C)c4Cl)CC3)c3c2CCCC3)CC1` [Example 453, N-(1-(1-(2-(4-(2-chloro-3-methylphenyl)piperazin-1-yl)-2-oxoethyl)-4,5,6,7-tetra hydro-1H-indazole-3-carbonyl)piperidin-4-yl) acetamide], the IC50 was found to be 0.59 nM.

With `Cc1cccc(N2CCN(C(=O)Cn3nc(C(=O)N4CCC(O)(CO)CC4)c4c3CCCC4)CC2)c1C` [Example 455, 1-(4-(2,3-dimethylphenyl)piperazin-1-yl)-2-(3-(4-hydroxy-4-(hydroxymethyl)piperidine-1-carbonyl)-4,5,6,7-tetrahydro-1H-indazol-1-yl)ethanone], the IC50 was determined as 3.32 nM.

In the case of `Cc1c(F)ccc(N2CCN(C(=O)Cn3nc(C(=O)N4CCC(F)(CO)CC4)c4c3CCCC4)CC2)c1C` [Example 458, 1-(4-(4-fluoro-2,3-dimethylphenyl)piperazin-1-yl)-2-(3-(4-fluoro-4-(hydroxy-methyl)piperidine-1-carbonyl)-4,5,6,7-tetrahydro-1H-indazol-1-yl)ethanone], the IC50 turned out to be 0.95 nM.

Consider `Cc1c(F)ccc(N2CCN(C(=O)Cn3nc(C(=O)N4CC[C@H](O)[C@@H](F)C4)c4c3CCCC4)CC2)c1C` [Example 459, 1-(4-(4-fluoro-2,3-dimethylphenyl)piperazin-1-yl)-2-(3-((3S,4S)-3-fluoro-4-hydroxypiperidine-1-carbonyl)-4,5,6,7-tetrahydro-1H-indazol-1-yl)ethanone], for which the IC50 is 1.17 nM.

Consider `Cc1cccc(N2CCN(C(=O)Cn3nc(C(=O)N4CCC(O)CC4(C)C)c4c3CCCC4)CC2)c1C` (stereo not drawn) [Example 461, 1-(4-(2,3-dimethylphenyl)piperazin-piperazin-1-yl)-2-(3-(4-hydroxy-2,2-dimethylpiperidine-1-carbonyl)-4,5,6,7-tetrahydro-1H-indazol-1-yl)ethanone], for which the IC50 was determined as 1.25 nM.

`Cc1cccc(N2CCN(C(=O)Cn3nc(C(=O)N4CCC(F)(CO)CC4)c4c3CCCC4)CC2)c1C` [Example 467, 1-(4-(2,3-dimethylphenyl)piperazin-1-yl)-2-(3-(4-fluoro-4-(hydroxymethyl)piperidine-1-carbonyl)-4,5,6,7-tetrahydro-1H-indazol-1-yl)ethanone]: the IC50 came out at 1.87 nM.

On to `Cc1cccc(N2CCN(C(=O)Cn3nc(C(=O)N4CCC(NC(=O)OC(C)(C)C)CC4)c4c3CCCC4)CC2)c1C` [Example 469, tert-butyl (1-(1-(2-(4-(2,3-dimethylphenyl)piperazin-1-yl)-2-oxoethyl)-4,5,6,7-tetrahydro-1H-indazole-3-carbonyl)piperidin-4-yl) carbamate], for which the IC50 amounted to 2.48 nM.

For the compound `Cc1cccc(N2CCN(C(=O)Cn3nc(C(=O)N4CCO[C@H](CO)C4)c4c3CCCC4)CC2)c1C` [Example 474, (S)-1-(4-(2,3-dimethylphenyl)piperazin-1-yl)-2-(3-(2-(hydroxymethyl)morpholine-4-carbonyl)-4,5,6,7-tetrahydro-1H-indazol-1-yl)ethanone], the IC50 amounted to 4.21 nM.

Turning to `Cc1cccc(N2CCN(C(=O)Cn3nc(C(=O)N4CCC(O)(CF)CC4)c4c3CCC4)CC2)c1C` [Example 481, 1-(4-(2,3-dimethylphenyl)piperazin-1-yl)-2-(3-(4-(fluoromethyl)-4-hydroxypiperidine-1-carbonyl)-5,6-dihydrocyclopenta[c]pyrazol-1(4H)-yl) ethanone], the 50% inhibitory concentration (IC50) was found to be 10.6 nM.

As to `Cc1c(F)cccc1N1CCN(C(=O)Cn2nc(C(=O)N3CCC(O)CC3)c3c2CCC3)CC1` [Example 483, 1-(4-(3-fluoro-2-methylphenyl)piperazin-1-yl)-2-(3-(4-hydroxypiperidine-1-carbonyl)-5,6-dihydrocyclopenta[c]pyrazol-1(4H)-yl) ethanone], the IC50 came out at 41.6 nM.

`Cc1cccc(N2CCN(C(=O)Cn3nc(C(=O)N4CCC(O)(CF)C4)c4c3CCC4)CC2)c1C` (stereo not drawn) [Example 485, 1-(4-(2,3-dimethylphenyl)piperazin-1-yl)-2-(3-(3-(fluoromethyl)-3-hydroxypyrrolidine-1-carbonyl)-5,6-dihydro-cyclopenta[c]pyrazol-1(4H)-yl)ethanone]: the IC50 worked out at 47.5 nM.

On to `Cc1c(F)cccc1N1CCN(C(=O)Cn2nc(C(=O)N3CC[C@H](O)[C@H](F)C3)c3c2CCC3)CC1` [Example 486, 1-(4-(3-fluoro-2-methylphenyl)piperazin-1-yl)-2-(3-((3R,4S)-3-fluoro-4-hydroxypiperidine-1-carbonyl)-5,6-dihydro-cyclopenta[c]pyrazol-1(4H)-yl)ethanone], for which the IC50 amounted to 128 nM.

Regarding `Cc1ccccc1N1CCN(C(=O)Cn2nc(C(=O)N3C[C@@H](C)O[C@@H](C)C3)c3c2CCC3)CC1` [Example 487, 2-(3-((2S,6R)-2,6-dimethylmorpholine-4-carbonyl)-5,6-dihydro-cyclopenta[c]pyrazol-1(4H)-yl)-1-(4-(o-tolyl)piperazin-1-yl)ethanone,], the IC50 amounted to 51.4 nM.

Take `Cc1cccc(N2CCN(C(=O)Cn3nc(C(=O)N4C[C@@H](C)O[C@@H](C)C4)c4c3CCC4)CC2)c1` [Example 488, 2-(3-((2S,6R)-2,6-dimethylmorpholine-4-carbonyl)-5,6-dihydrocyclopenta [c]pyrazol-1(4H)-yl)-1-(4-(m-tolyl)piperazin-1-yl)ethanone]: the IC50 stood at 83.8 nM.
